In paper PMC10526854, “Shikonin and Juglone Inhibit Mycobacterium tuberculosis Low-Molecular-Weight Protein Tyrosine Phosphatase a (Mt-PTPa)” (BioTech, 2023):

Experiments:
Mt-PTPa = target: T1, Mt-PTPa (Mycobacterium tuberculosis, UniProt P9WIA1); experiment: Mt-PTPa phosphatase activity inhibition assay (hydrolysis of p-nitrophenyl phosphate, A405); type: biochemical; details: for IC50 / Ki / inhibition of Mt-PTPa compared with vanadate: Mt-PTPa 10 µM; for IC50 / inhibition of Mt-PTPa compared with vanadate: pNPP 100 µM; for IC50: 37 °C, 10 min, compound 0-1000 µM, mean ± SD (n = 3); for Ki: Dixon plot analysis, inhibitor 0-100 µM, read-out: KI (inhibitor constant); for Ki / inhibition pattern (mechanism): pNPP 0.25-2.50 mM; for inhibition of Mt-PTPa compared with vanadate: at 25 and 50 µM; for inhibition pattern (mechanism): double-reciprocal analysis
T1 construct: made in house; host or cells: E. coli BL21(DE3)pLysS

[1] = target: protein tyrosine phosphatase 1B (PTP1B); design: method as in PMID 34208908; details: in vitro; cited from earlier work
[2] = system: N-formyl-L-methionyl-L-leucyl-L-phenylalanine-induced protein tyrosine phosphorylation; design: method as in PMID 9175722; details: in neutrophils; cited from earlier work

T1 sequence (P9WIA1 whole entry): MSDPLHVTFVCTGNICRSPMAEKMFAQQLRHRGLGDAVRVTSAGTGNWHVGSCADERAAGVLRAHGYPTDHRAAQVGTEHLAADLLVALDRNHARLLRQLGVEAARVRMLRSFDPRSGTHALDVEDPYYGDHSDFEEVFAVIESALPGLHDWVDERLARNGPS

Oc1cc(O)c2c(c1)O[C@H](c1cc(O)c(O)c(O)c1)[C@H](O)C2 [Epigallocatechin, epigallocatechin]
initial library screen outcome (Mt-PTPa): hits | IC50 (Mt-PTPa): 492 ± 101 µM

O=C1C=CC(=O)c2c(O)cccc21 [Juglone, 5-hydroxy-1,4-naphthalenedione]
Ki (Mt-PTPa): 12.5 µM | inhibition of Mt-PTPa compared with vanadate (Mt-PTPa): comparable levels of inhibition to vanadate | inhibition pattern (mechanism) (Mt-PTPa): non-competitive

O=c1c(O)c(-c2cc(O)c(O)c(O)c2)oc2cc(O)cc(O)c12 [Myricetin, myricetin]
initial library screen outcome (Mt-PTPa): hits | IC50 (Mt-PTPa): 250 ± 25 µM

O=C(/C=C/c1ccc(O)c(O)c1)O[C@H](Cc1ccc(O)c(O)c1)C(=O)O [Rosmarinic Acid, rosmarinic acid]
initial library screen outcome (Mt-PTPa): hits | IC50 (Mt-PTPa): 900 ± 132 µM

CC(C)=CC[C@@H](O)C1=CC(=O)c2c(O)ccc(O)c2C1=O [Shikonin, 5,8-dihydroxy-2-[(1R)-1-hydroxy-4-methyl-3-pentenyl]-1,4-naphthoquinone]
initial library screen outcome (Mt-PTPa): hits | Ki (Mt-PTPa): 8.5 µM | IC50 (Mt-PTPa): 33 ± 7 µM | inhibition of Mt-PTPa compared with vanadate (Mt-PTPa): comparable levels of inhibition to vanadate | inhibition pattern (mechanism) (Mt-PTPa): non-competitive | IC50 [1]: 15.5 µM

CC(=O)O[C@H](CC=C(C)C)C1=CC(=O)c2c(O)ccc(O)c2C1=O [acetylshikonin]
reduction of protein tyrosine phosphorylation [2]: 90%

C[C@H]1[C@H](C)CC[C@]2(C(=O)O)CC[C@]3(C)C(=CC[C@@H]4[C@@]5(C)CC[C@H](O)C(C)(C)[C@@H]5CC[C@]43C)[C@H]12 [ursolic acid, reference compound]
IC50 [1]: 8.72 µM
